Active and inactive are the calls of the source. The calls are words filed in the database; no cut-off is given here.
Legend:
[1] = target: T1, M-phase inducer phosphatase 1 (Homo sapiens) (UniProt P30304); test: Inhibition of Cdc25A (unknown origin) at 1 to 30 uM; details: dose 1-30 µM
T1 sequence (whole entry): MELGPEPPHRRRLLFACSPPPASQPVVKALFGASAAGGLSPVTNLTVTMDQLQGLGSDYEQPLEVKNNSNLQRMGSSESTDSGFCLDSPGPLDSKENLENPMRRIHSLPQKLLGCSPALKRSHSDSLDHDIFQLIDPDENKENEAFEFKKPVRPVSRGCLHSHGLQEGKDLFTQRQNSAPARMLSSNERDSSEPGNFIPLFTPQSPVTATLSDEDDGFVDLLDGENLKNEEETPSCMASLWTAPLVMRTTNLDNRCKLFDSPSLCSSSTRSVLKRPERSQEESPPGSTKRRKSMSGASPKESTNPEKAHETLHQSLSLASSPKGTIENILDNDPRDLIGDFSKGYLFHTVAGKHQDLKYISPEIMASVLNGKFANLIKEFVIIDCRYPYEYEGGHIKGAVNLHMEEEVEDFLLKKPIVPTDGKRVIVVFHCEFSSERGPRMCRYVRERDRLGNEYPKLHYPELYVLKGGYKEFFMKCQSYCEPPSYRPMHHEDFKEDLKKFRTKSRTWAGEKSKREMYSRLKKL

[2] = target: T2, M-phase inducer phosphatase 2 (Homo sapiens) (UniProt P30305); test: Inhibition of recombinant human Cdc25B ([…] residues) using O-methylfluorescein phosphate as substrate at 30 uM by fluorescence assay
T2 sequence (whole entry): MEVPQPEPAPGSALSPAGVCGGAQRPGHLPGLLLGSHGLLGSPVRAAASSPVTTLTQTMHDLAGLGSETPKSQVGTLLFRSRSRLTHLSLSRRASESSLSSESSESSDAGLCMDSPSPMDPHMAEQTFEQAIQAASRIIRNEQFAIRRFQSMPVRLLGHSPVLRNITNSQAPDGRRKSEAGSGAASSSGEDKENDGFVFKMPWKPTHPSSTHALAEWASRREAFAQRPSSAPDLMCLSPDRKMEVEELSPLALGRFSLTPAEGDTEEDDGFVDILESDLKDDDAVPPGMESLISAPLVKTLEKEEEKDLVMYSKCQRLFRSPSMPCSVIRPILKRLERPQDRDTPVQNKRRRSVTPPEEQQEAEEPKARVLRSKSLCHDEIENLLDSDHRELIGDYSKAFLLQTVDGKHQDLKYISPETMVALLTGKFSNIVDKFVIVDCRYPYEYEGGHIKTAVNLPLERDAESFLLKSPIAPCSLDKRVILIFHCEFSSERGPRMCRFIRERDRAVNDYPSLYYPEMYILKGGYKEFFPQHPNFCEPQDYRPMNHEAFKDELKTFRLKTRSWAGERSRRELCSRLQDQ

[3] = target: T1, M-phase inducer phosphatase 1 (Homo sapiens); test: Inhibition of Cdc25A (unknown origin) at 1 to 500 uM by fluorescence assay; details: dose 1-500 µM
[4] = target: T2, M-phase inducer phosphatase 2 (Homo sapiens); test: Inhibition of recombinant human Cdc25B ([…] residues) using O-methylfluorescein phosphate as substrate at 1 to 500 uM by fluorescence assay; details: dose 1-500 µM
[5] = target: T2, M-phase inducer phosphatase 2 (Homo sapiens); test: Inhibition of recombinant human Cdc25B ([…] residues) using O-methylfluorescein phosphate as substrate at 1 to 30 uM by fluorescence assay; details: dose 1-30 µM
[6] = target: T3, M-phase inducer phosphatase 2 (Homo sapiens, UniProt P30305); test: Competitive inhibition of recombinant human Cdc25B ([…] residues) assessed as hydrolysis of substrate O-methylfluorescein phosphate by Lineweaver-Burk plot analysis
T3 sequence (P30305 whole entry): T2 sequence (whole entry)

Row | inhibition [3] | inhibition (active/inactive) [4] | Compound | other results
1 | inactive | Active | CC(C)C[C@H](Nc1nc(NCCCCCNC(=O)CCCNc2nc(N[C@@H](CC(=O)O)C(=O)O)nc(N[C@@H](Cc3ccc(O)cc3)C(=O)O)n2)nc(N[C@@H](C)C(=O)O)n1)C(=O)O | –
2 | – | Active | COC(=O)[C@H](CCCCN)Nc1nc(NCCCCCNC(=O)CCCNc2nc(N[C@@H](CCCCN)C(=O)OC)nc(N[C@@H](CCCCN)C(=O)OC)n2)nc(N[C@@H](CCCCN)C(=O)OC)n1 | –

More lines, now with the values behind:

Row | Compound | inhibition [3] | inhibition (active/inactive) [4] | other results
3 | O=C(O)C[C@H](Nc1nc(NCCCCCCCCCCNc2nc(N[C@@H](CC(=O)O)C(=O)O)nc(N[C@@H](Cc3c[nH]c4ccccc34)C(=O)O)n2)nc(N[C@@H](Cc2ccc(O)cc2)C(=O)O)n1)C(=O)O | – | – | inhibition [1]: Active; inhibition [2]: 1.5%
4 | C[C@H](Nc1nc(NCCCCCNC(=O)CCCNc2nc(N[C@@H](CC(=O)O)C(=O)O)nc(N[C@@H](Cc3ccc(O)cc3)C(=O)O)n2)nc(N[C@@H](C)C(=O)O)n1)C(=O)O | – | Active | –
5 | O=C(O)C[C@H](Nc1nc(O)nc(N[C@@H](Cc2c[nH]c3ccccc23)C(=O)O)n1)C(=O)O | – | – | inhibition [5]: inactive
6 | C[C@H](Nc1nc(NCCCCCNC(=O)CCCNc2nc(N[C@@H](C)C(=O)O)nc(N[C@@H](C)C(=O)O)n2)nc(N[C@@H](C)C(=O)O)n1)C(=O)O | Active | Active | –
7 | O=C(O)C[C@H](Nc1nc(O)nc(N[C@@H](Cc2ccc(O)cc2)C(=O)O)n1)C(=O)O | – | – | inhibition [5]: inactive
8 | O=C(O)C[C@H](Nc1nc(NCCCC(=O)NCCCCCNc2nc(N[C@@H](CC(=O)O)C(=O)O)nc(N[C@@H](Cc3c[nH]c4ccccc34)C(=O)O)n2)nc(N[C@@H](Cc2ccc(O)cc2)C(=O)O)n1)C(=O)O | inactive | Active | Ki [6]: 2.6 µM; inhibition [2]: 43%

Source: ChEMBL document CHEMBL4823292, “Design, synthesis, and functional evaluation of triazine-based bivalent agents that simultaneously target the active site and hot spot of phosphatase Cdc25B” (Bioorg Med Chem Lett, 2021)
